Measurements from PubChem BioAssay AID330 (DTP/NCI, 2004).
Values joined by “and” are separate entries in the source; they are usually repeats but may differ in a detail not shown here. Identical values can stand only once. Inconclusive results and toxic doses are left out.

Test system: P388 leukemia ip, CD2F1 mice, survival T/C
Test: NCI In Vivo Anticancer Drug Screen. Data for tumor model P388 Leukemia (intraperitoneal) in CD2F1 (CDF1) mice
Conditions: endpoint: median survival time, higher = longer survival
Procedure, shortened: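 Mice carrying the transplanted tumor received test compound or vehicle. Survival was recorded in each group, and the value is the treated-group measurement divided by that of the vehicle-treated control group.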

[1] = dose: 50.0 mg/kg/injection, schedule: Q01DX005 (ip), vehicle: saline with Tween-80
[2] = dose: 100.0 mg/kg/injection, schedule: Q01DX005 (ip), vehicle: saline with Tween-80
[3] = dose: 200.0 mg/kg/injection, schedule: Q01DX005 (ip), vehicle: saline with Tween-80
[4] = dose: 25.0 mg/kg/injection, schedule: Q01DX009 (ip), vehicle: saline with Tween-80
[5] = dose: 50.0 mg/kg/injection, schedule: Q01DX009 (ip), vehicle: saline with Tween-80
[6] = dose: 100.0 mg/kg/injection, schedule: Q01DX009 (ip), vehicle: saline with Tween-80
[7] = dose: 200.0 mg/kg/injection, schedule: Q01DX009 (ip), vehicle: saline with Tween-80
[8] = dose: 60.0 mg/kg/injection, schedule: Q01DX005 (ip), vehicle: saline with Tween-80
[9] = dose: 120.0 mg/kg/injection, schedule: Q01DX005 (ip), vehicle: saline with Tween-80
[10] = dose: 50.0 mg/kg/injection, schedule: Q01DX005 (ip), vehicle: Klucel (hydroxypropylcellulose) (HPC)
[11] = dose: 100.0 mg/kg/injection, schedule: Q01DX005 (ip), vehicle: Klucel (hydroxypropylcellulose) (HPC)
[12] = dose: 200.0 mg/kg/injection, schedule: Q01DX005 (ip), vehicle: Klucel (hydroxypropylcellulose) (HPC)
[13] = dose: 1.56 mg/kg/injection, schedule: Q01DX009 (ip), vehicle: saline with Tween-80
[14] = dose: 12.5 mg/kg/injection, schedule: Q01DX009 (ip), vehicle: saline with Tween-80
[15] = dose: 200.0 mg/kg/injection, schedule: Q04DX003 (ip), vehicle: saline with Tween-80

## O=C1CSC(=S)N1c1ccc(F)cc1
dose: 50.0 mg/kg/injection, schedule: Q01DX009 (ip), vehicle: suspension in saline
  T/C: 106 % of control
dose: 100.0 mg/kg/injection, schedule: Q01DX009 (ip), vehicle: suspension in saline
  T/C: 100 % of control
dose: 200.0 mg/kg/injection, schedule: Q01DX009 (ip), vehicle: suspension in saline
  T/C: 90 % of control

## CCN(CC)c1ccc(C(=C2C=CC(=[N+](CC)CC)C=C2)c2ccc(N(CC)CC)cc2)cc1
[1]
  T/C: 113 % of control and 120 % of control

## [N-]=[N+]=Nc1ccc(NCCCCCC(=O)ON2C(=O)CCC2=O)c([N+](=O)[O-])c1
[1]
  T/C: 106 % of control
[2]
  T/C: 106 % of control
[3]
  T/C: 106 % of control

## NNC(=O)c1ccc(Cl)cc1
[4]
  T/C: 91 % of control
[5]
  T/C: 96 % of control
[6]
  T/C: 96 % of control
[7]
  T/C: 86 % of control

## O=C(Nc1ccccc1F)OCCCl
[8]
  T/C: 99 % of control
[9]
  T/C: 101 % of control
dose: 240.0 mg/kg/injection, schedule: Q01DX005 (ip), vehicle: saline with Tween-80
  T/C: 93 % of control

## COC(C)(C)O/N=C(\C[P+](c1ccccc1)(c1ccccc1)c1ccccc1)c1ccc(Cl)cc1
dose: 6.25 mg/kg/injection, schedule: Q01DX009 (ip), vehicle: Klucel (hydroxypropylcellulose) (HPC)
  T/C: 109 % of control
dose: 12.5 mg/kg/injection, schedule: Q01DX009 (ip), vehicle: Klucel (hydroxypropylcellulose) (HPC)
  T/C: 106 % of control
dose: 25.0 mg/kg/injection, schedule: Q01DX009 (ip), vehicle: Klucel (hydroxypropylcellulose) (HPC)
  T/C: 99 % of control

## COc1cccc(C(=O)N/N=C(\C#N)c2cccc(OC)c2)c1
[1]
  T/C: 97 % of control
[2]
  T/C: 94 % of control

## O=C(O)C1CCC[N-]1.[Cl][Pd][Cl] (configuration not stated)
dose: 6.25 mg/kg/injection, schedule: Q01DX009 (ip), vehicle: water
  T/C: 105 % of control
dose: 12.5 mg/kg/injection, schedule: Q01DX009 (ip), vehicle: water
  T/C: 96 % of control
dose: 25.0 mg/kg/injection, schedule: Q01DX009 (ip), vehicle: water
  T/C: 100 % of control
dose: 50.0 mg/kg/injection, schedule: Q01DX009 (ip), vehicle: water
  T/C: 114 % of control
dose: 100.0 mg/kg/injection, schedule: Q01DX009 (ip), vehicle: water
  T/C: 93 % of control

## CCOc1ccc(-c2nc(-c3ccc(N(C)C(=O)C(Cl)Cl)cc3)cs2)cc1OCC
dose: 100.0 mg/kg/injection, schedule: Q04DX003 (ip), vehicle: Klucel (hydroxypropylcellulose) (HPC)
  T/C: 102 % of control
dose: 200.0 mg/kg/injection, schedule: Q04DX003 (ip), vehicle: Klucel (hydroxypropylcellulose) (HPC)
  T/C: 100 % of control
dose: 400.0 mg/kg/injection, schedule: Q04DX003 (ip), vehicle: Klucel (hydroxypropylcellulose) (HPC)
  T/C: 94 % of control

## Cc1ccc(C(=O)C2CC(Br)C(Br)CC2C(=O)c2ccc(C)cc2)cc1 (configuration not stated)
[6]
  T/C: 91 % of control
[7]
  T/C: 91 % of control
dose: 400.0 mg/kg/injection, schedule: Q01DX009 (ip), vehicle: saline with Tween-80
  T/C: 87 % of control

## O=S(=O)(c1cnccc1N1CCN(CCCl)CC1)N1CCCCC1
dose: 6.25 mg/kg/injection, schedule: Q01DX009 (ip), vehicle: saline
  T/C: 98 % of control and 100 % of control
dose: 12.5 mg/kg/injection, schedule: Q01DX009 (ip), vehicle: saline
  T/C: 100 % of control and 104 % of control and 105 % of control
dose: 25.0 mg/kg/injection, schedule: Q01DX009 (ip), vehicle: saline
  T/C: 100 % of control and 108 % of control and 109 % of control

## CC12CCC(=O)C1C=CC2=O (configuration not stated)
dose: 100.0 mg/kg/injection, schedule: Q04DX003 (ip), vehicle: saline + Tween-80 + alcohol
  T/C: 100 % of control
dose: 200.0 mg/kg/injection, schedule: Q04DX003 (ip), vehicle: saline + Tween-80 + alcohol
  T/C: 112 % of control

## Cc1nc(O)c(-c2ccc(Cl)cc2)c(=O)[nH]1
[8]
  T/C: 102 % of control
[9]
  T/C: 109 % of control

## O=Cc1c(-c2ccccc2)sc2ccccc2c1=O
dose: 100.0 mg/kg/injection, schedule: Q04DX002 (ip), vehicle: saline with Tween-80
  T/C: 113 % of control
dose: 200.0 mg/kg/injection, schedule: Q04DX002 (ip), vehicle: saline with Tween-80
  T/C: 98 % of control
dose: 400.0 mg/kg/injection, schedule: Q04DX002 (ip), vehicle: saline with Tween-80
  T/C: 109 % of control

## Nc1ncnc2c1ncn2C1OC(COC(c2ccccc2)(c2ccccc2)c2ccccc2)C(O)C1O (configuration not stated)
[1]
  T/C: 100 % of control
[2]
  T/C: 95 % of control
[3]
  T/C: 90 % of control

## CCOP(=O)(Nc1ccc2c(c1)Cc1c-2cc(Cl)c(NC(C)=O)c1Cl)OCC
[10]
  T/C: 95 % of control
[11]
  T/C: 97 % of control
[12]
  T/C: 97 % of control

## CCN(CC)CCN1C(=O)c2cccc3cc(N)cc(c23)C1=O
[13]
  T/C: 101 % of control
dose: 1.6 mg/kg/injection, schedule: Q01DX009 (ip), vehicle: saline with Tween-80
  T/C: 100 % of control
dose: 3.12 mg/kg/injection, schedule: Q01DX009 (ip), vehicle: saline with Tween-80
  T/C: 98 % of control
dose: 3.2 mg/kg/injection, schedule: Q01DX009 (ip), vehicle: saline with Tween-80
  T/C: 108 % of control
dose: 6.25 mg/kg/injection, schedule: Q01DX009 (ip), vehicle: saline with Tween-80
  T/C: 98 % of control
dose: 6.5 mg/kg/injection, schedule: Q01DX009 (ip), vehicle: saline with Tween-80
  T/C: 107 % of control and 123 % of control
[14]
  T/C: 107 % of control
dose: 13.1 mg/kg/injection, schedule: Q01DX009 (ip), vehicle: saline with Tween-80
  T/C: 121 % of control and 123 % of control
[4]
  T/C: 114 % of control
dose: 26.0 mg/kg/injection, schedule: Q01DX009 (ip), vehicle: saline with Tween-80
  T/C: 124 % of control
[5]
  T/C: 160 % of control

## Cc1nc(Nc2ccc(F)cc2)c2c(C)c(CC(C)C)[nH]c2n1
[10]
  T/C: 87 % of control
[11]
  T/C: 91 % of control
[12]
  T/C: 100 % of control

## O=C1c2cccc3cc([N+](=O)[O-])cc(c23)C(=O)N1CCN1CCCC1
[13]
  T/C: 118 % of control
[14]
  T/C: 150 % of control

## CCCCCCCCCCCCCCCCCC(=O)O.[Co]
[5]
  T/C: 87 % of control and 95 % of control and 97 % of control
[6]
  T/C: 100 % of control and 103 % of control and 97 % of control
[7]
  T/C: 92 % of control

## CN(C)CCCSc1n[nH]c(=O)[nH]c1=O
dose: 25.0 mg/kg/injection, schedule: Q01DX005 (ip), vehicle: distilled water + alcohol
  T/C: 111 % of control
dose: 50.0 mg/kg/injection, schedule: Q01DX005 (ip), vehicle: distilled water + alcohol
  T/C: 104 % of control
dose: 100.0 mg/kg/injection, schedule: Q01DX005 (ip), vehicle: distilled water + alcohol
  T/C: 95 % of control
dose: 200.0 mg/kg/injection, schedule: Q01DX005 (ip), vehicle: distilled water + alcohol
  T/C: 92 % of control

## S=c1oc2cccc3c2n1CCC3
dose: 100.0 mg/kg/injection, schedule: Q04DX003 (ip), vehicle: saline with Tween-80
  T/C: 95 % of control
[15]
  T/C: 104 % of control
dose: 400.0 mg/kg/injection, schedule: Q04DX003 (ip), vehicle: saline with Tween-80
  T/C: 100 % of control

## O=S1(=O)CS/C(=N\C(=S)N(c2ccccc2)c2ccccc2)N1c1ccccc1
dose: 3.13 mg/kg/injection, schedule: Q04DX003 (ip), vehicle: saline with Tween-80
  T/C: 106 % of control
dose: 6.25 mg/kg/injection, schedule: Q04DX003 (ip), vehicle: saline with Tween-80
  T/C: 99 % of control
dose: 12.5 mg/kg/injection, schedule: Q04DX003 (ip), vehicle: saline with Tween-80
  T/C: 94 % of control and 95 % of control
dose: 50.0 mg/kg/injection, schedule: Q04DX003 (ip), vehicle: saline with Tween-80
  T/C: 86 % of control
[15]
  T/C: 93 % of control

## Cc1cc(O)c(Br)cc1O
[10]
  T/C: 100 % of control
[11]
  T/C: 97 % of control
[12]
  T/C: 97 % of control

## CCN(CC)CCOC(=O)c1c(C)oc2cc3c(C(=O)OCCN(CC)CC)c(C)oc3cc12
dose: 25.0 mg/kg/injection, schedule: Q01DX005 (ip), vehicle: Klucel (hydroxypropylcellulose) (HPC)
  T/C: 98 % of control
[10]
  T/C: 92 % of control
[11]
  T/C: 94 % of control
[12]
  T/C: 113 % of control

## COc1cc(NC(C)=O)c(OC)c2c(=O)cc(C(=O)O)[nH]c12
dose: 100.0 mg/kg/injection, schedule: Q01DX001 (ip), vehicle: Klucel (hydroxypropylcellulose) (HPC)
  T/C: 93 % of control
dose: 200.0 mg/kg/injection, schedule: Q01DX001 (ip), vehicle: Klucel (hydroxypropylcellulose) (HPC)
  T/C: 98 % of control
dose: 400.0 mg/kg/injection, schedule: Q01DX001 (ip), vehicle: Klucel (hydroxypropylcellulose) (HPC)
  T/C: 99 % of control
